{
  "source": "patent US20250295673A1",
  "about": "“TREATMENT OF BREAST CANCER” (priority 2024, published 2025)",
  "origin": "cited, not measured here",
  "key": {"[1]": {"test_system": "FSH (Follicle Stimulating Hormone) and LH (Leutinizing Hormone) release", "conditions": "nandrolone alone"}, "[2]": {"molecular_target": "T1, SHBG (Homo sapiens, UniProt P04278)", "T1 sequence (P04278 30-402)": "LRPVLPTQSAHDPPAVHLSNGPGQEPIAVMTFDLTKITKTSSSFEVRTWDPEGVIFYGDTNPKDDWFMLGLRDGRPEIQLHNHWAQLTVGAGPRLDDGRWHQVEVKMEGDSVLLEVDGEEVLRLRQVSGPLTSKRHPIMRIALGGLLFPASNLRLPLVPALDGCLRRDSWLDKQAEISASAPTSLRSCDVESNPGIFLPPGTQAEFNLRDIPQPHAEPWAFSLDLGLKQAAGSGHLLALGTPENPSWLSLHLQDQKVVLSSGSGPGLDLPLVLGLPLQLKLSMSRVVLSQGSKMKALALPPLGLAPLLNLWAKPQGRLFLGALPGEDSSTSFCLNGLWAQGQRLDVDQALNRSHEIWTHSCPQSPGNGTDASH", "conditions": "releases testosterone, nandrolone, oxandrolone from SHBG"}, "[3]": {"test_system": "brain oxytocin", "conditions": "topically applied vaginally"}},
  "note": "Entries after “also recorded” stand apart in the source; their conditions may differ.",
  "data": [
    {"smiles": "C[C@]12CC[C@H]3[C@@H](CCC4=CC(=O)CC[C@@H]43)[C@@H]1CC[C@@H]2O", "note": "[nandrolone]", "values": [
      {"measurement": "effect on FSH and LH release from the pituitary", "setting": "[1]", "value": "suppresses"}
    ]},
    {"smiles": "C[C@]12Cc3c[nH]nc3C[C@@H]1CC[C@@H]1[C@@H]2CC[C@@]2(C)[C@H]1CC[C@]2(C)O", "note": "[stanozolol]", "values": [
      {"measurement": "net increase of androgens by release from SHBG", "setting": "[2]", "value": "four-fold"},
      {"measurement": "effect on brain oxytocin", "setting": "[3]", "value": "increases brain oxytocin; also recorded: raises a user's oxytocin levels"}
    ]}
  ]
}
